We go through seven molecules from US20260139007A1, “EPHA4 ANTAGONISTS AND USES THEREOF” (SANFORD BURNHAM PREBYS MEDICAL DISCOVERY INSTITUTE, priority 2023, published 2026).

The target in data set [1] is EphA4 Fc. As to the kind of experiment: ELISA measuring inhibition of ephrin-A5 AP binding to immobilized EphA4 Fc. Details: species or system human or mouse. The note with it: inhibition of ephrin-A5 AP binding to EphA4 Fc; averages of all experiments; read-out: IC50 ± SE (n) by ELISA.
The nature of data set [2]: In vivo half-life: active compound remaining in mouse blood, deduced from apparent IC50 of plasma in the EphA4-ephrinA5 ELISA. Conditions: for half-life: in vivo, read-out: In vivo half-life (converted). As to the method:
To examine the persistence of compounds in the blood circulation, an approach was devised to determine the concentration of compound in mouse blood by taking advantage of the ELISA measuring inhibition of EphA4-ephrinA5 interaction.
Lipidated compounds dissolved in DMSO were diluted in […] PBS (to a 5% final DMSO concentration) or in […] PBS supplemented with 20 or 40 mg/mL BSA or 6.5 mM methyl-β-cyclodextrin for intravenous or intraperitoneal injection. Neutral pH of the compound solution was verified before injection. PEGylated compounds were dissolved in […] PBS before intraperitoneal injection. Peptides were sterile filtered before administration. Blood from each mouse was collected at 3 different time points after compound injection, the first 2 times by retro-orbital bleeding and the third time by terminal cardiac bleeding under deep anesthesia. Red blood cells were removed by centrifugation from blood treated with heparin and the resulting plasma was frozen in aliquots.
For each time point, a dose-response curves by measuring inhibition of EphA4-ephrinA5 binding at different plasma dilutions was obtained.

Data set [3] has as its target EphA4 Fc. Briefly: ELISA inhibition of ephrin-A5 AP binding to EphA4 Fc in the presence of HSA, BSA or methyl-β-cyclodextrin. The note with it: for IC50: read-out: IC50 ± SE (n) by ELISA with HSA or BSA, 40 mg/mL delipidated HSA.
Description: To determine whether albumin binding to the lipidated compounds affects their ability to bind EphA4, the effects of delipidated human serum albumin (HSA) on the inhibitory potency of some of the compounds were examined.
[4] abbreviates: mouse, ip, mouse, IP (intraperitoneal administration).

Values joined by “and” are separate entries in the source; they are usually repeats but may differ in a detail not shown here. Identical values can stand only once. Like-named read-outs stand apart in the source and are kept apart here. Marks after values point to notes of the source that are not given here. Numbered stars: 1 amine (or outer) side, 2 acyl side, 3 side chain; on linkers, the order of the positions; unused ones are H or OH. Bridge positions count the residues as written; N and C are the ends. Square brackets hold non-standard residues; d marks the D form. Side chains are listed from the residue outwards. Peptide text beside a SMILES is read from it. * marks the point of attachment. γGlu = O=C(O)[C@H](CCC(=O)[*:2])N[*:1]; βAsp = O=C(O)[C@H](CC(=O)[*:2])N[*:1]; Palmitoyl = CCCCCCCCCCCCCCCC(=O)*; Lauroyl = CCCCCCCCCCCC(=O)*; βAla = NCCC(=O)O

Turning to `CCCCCCCCCCCCCCCC(=O)N[C@@H](CCC(=O)NCCCC[C@@H]1NC(=O)[C@H](Cc2ccc(O)cc2)NC(=O)[C@H](C(C)C)NC(=O)[C@@H](NC(=O)[C@H](Cc2ccc(O)cc2)NC(=O)[C@@H]2CCCN2C(=O)CCN)CSSC[C@@H](C(N)=O)NC(=O)[C@H](CO)NC(=O)[C@H](Cc2c[nH]c3ccccc23)NC(=O)[C@H](CO)NC(=O)CCNC1=O)C(=O)O` [Compound 17, βAPYCVYK(palmitoyl-γE)BASWSC-NH2] (H-[βAla]PYCVYK([γGlu-Palmitoyl])[βAla]SWSC-NH2; disulfide 4-12), the IC50 on EphA4 Fc [1] turned out to be 2300 nM.
Still for that read-out and setting: next, `CCCCCCCCCCCC(=O)N[C@@H](CC(=O)NCCCC[C@@H]1NC(=O)[C@H](Cc2ccc(O)cc2)NC(=O)[C@H](C(C)C)NC(=O)[C@@H](NC(=O)[C@H](Cc2ccc(O)cc2)NC(=O)[C@@H]2CCCN2C(=O)CCN)CSSC[C@@H](C(N)=O)NC(=O)[C@H](CO)NC(=O)[C@H](Cc2c[nH]c3ccccc23)NC(=O)[C@H](CO)NC(=O)CCNC1=O)C(=O)O` [Compound 10, βAPYCVYK(lauroyl-βD)βASWSC-NH2] (H-[βAla]PYCVYK([βAsp-Lauroyl])[βAla]SWSC-NH2; disulfide 4-12): 110 ± 10 nM.
On to `CCCCCCCCCCCC(=O)N[C@@H](CCC(=O)NCCCC[C@H](NC(=O)CNC(=O)CNC(=O)[C@@H]1CSSC[C@H](NC(=O)[C@H](Cc2ccc(O)cc2)NC(=O)[C@@H]2CCCN2C(=O)CCN)C(=O)N[C@@H](C(C)C)C(=O)N[C@@H](Cc2ccc(O)cc2)C(=O)N[C@@H](CCCNC(=N)N)C(=O)NCCC(=O)N[C@@H](CO)C(=O)N[C@@H](Cc2c[nH]c3ccccc23)C(=O)N[C@@H](CO)C(=O)N1)C(=O)NCC(N)=O)C(=O)O` [Compound 14], for which the IC50 on EphA4 Fc [1] was 52 ± 10 nM; in data set [2] (0 minutes: control, compound diluted in plasma in vitro), 81 nM; in data set [2] (plasma 60 minutes after intraperitoneal injection, mouse), 168 nM; in data set [2] (plasma 120 minutes after intraperitoneal injection, mouse), 371 nM; in data set [2] (plasma 240 minutes after intraperitoneal injection, mouse) it was 1820 nM. Moreover, the “FOLD INCREASE IN APPARENTIC IC COMPARED TO CONTROL” value is 1.0 fold in data set [2] (0 minutes (control)); 2.1 fold in data set [2] (60 minutes after intraperitoneal injection); 5 fold and 4.6 fold in data set [2] (120 minutes after intraperitoneal injection); 22.5 fold in data set [2] (240 minutes after intraperitoneal injection). Besides, the “% PEPTIDE 14 REMAINING IN THE BLOOD” value in data set [2] (0 minutes, ESTIMATED (all injected compound in 2.5 mL blood)) is 100* %; in data set [2] (60 minutes after intraperitoneal injection, MEASURED), 48.2%; in data set [2] (120 minutes after intraperitoneal injection, MEASURED) it was 20% and 21.8%; in data set [2] (240 minutes after intraperitoneal injection, MEASURED) it was 4.5%. Besides, the half-life was 30 to 60 min in data set [2] (setting [4]) and 30 to 42 min in data set [2] (mouse, iv, mouse, IV (intravenous administration)).
`CCCCCCCCCCCC(=O)N[C@@H](CCC(=O)NCCCC[C@@H]1NC(=O)[C@H](Cc2ccc(O)cc2)NC(=O)[C@H](C(C)C)NC(=O)[C@@H](NC(=O)[C@H](Cc2ccc(O)cc2)NC(=O)[C@@H]2CCCN2C(=O)CCN)CSSC[C@@H](C(N)=O)NC(=O)[C@H](CO)NC(=O)[C@H](Cc2c[nH]c3ccccc23)NC(=O)[C@H](CO)NC(=O)CCNC1=O)C(=O)O` [Compound 11, βAPYCVYK(lauroyl-γE)βASWSC-NH2] (H-[βAla]PYCVYK([γGlu-Lauroyl])[βAla]SWSC-NH2; disulfide 4-12): the IC50 on EphA4 Fc [1] was determined as 84 ± 13 nM. In addition, in data set [2] (setting [4]), the half-life was 30 to 60 min.
On to `CCCCCCCC(=O)NCCCC[C@H](NC(=O)CNC(=O)CNC(=O)[C@@H]1CSSC[C@H](NC(=O)[C@H](Cc2ccc(O)cc2)NC(=O)[C@@H]2CCCN2C(=O)CCN)C(=O)N[C@@H](C(C)C)C(=O)N[C@@H](Cc2ccc(O)cc2)C(=O)N[C@@H](CCCNC(=N)N)C(=O)NCCC(=O)N[C@@H](CO)C(=O)N[C@@H](Cc2c[nH]c3ccccc23)C(=O)N[C@@H](CO)C(=O)N1)C(=O)NCC(N)=O` [Compound 7], for which the IC50 at EphA4 Fc [1] came to 34 ± 6 nM; at EphA4 Fc [3], 110 ± 30 nM.
Regarding `CC(C)[C@@H]1NC(=O)[C@@H](NC(=O)[C@H](Cc2ccc(O)cc2)NC(=O)[C@@H]2CCCN2C(=O)[C@H](C)N)CSSC[C@@H](C(N)=O)NC(=O)[C@H](CO)NC(=O)[C@H](Cc2c[nH]c3ccccc23)NC(=O)[C@H](CO)NC(=O)CCNC(=O)[C@H](CCCCN)NC(=O)[C@H](Cc2ccc(O)cc2)NC1=O` [Compound 1, APYCVYKβASWSC-NH2] (H-APYCVYK[βAla]SWSC-NH2; disulfide 4-12), the IC50 on EphA4 Fc [1] turned out to be 67 ± 10 nM; at EphA4 Fc [3], 55 ± 13 nM. For the same molecule, the “effect of HSA on potency” value in the data set with EphA4 Fc [3] (presence vs absence of 40 mg/mL HSA, tested in parallel) is “only a very small effect”.
For the molecule `CCCCCCCCCCCC(=O)NCCCC[C@@H]1NC(=O)[C@H](Cc2ccc(O)cc2)NC(=O)[C@H](C(C)C)NC(=O)[C@@H](NC(=O)[C@H](Cc2ccc(O)cc2)NC(=O)[C@@H]2CCCN2C(=O)CCN)CSSC[C@@H](C(N)=O)NC(=O)[C@H](CO)NC(=O)[C@H](Cc2c[nH]c3ccccc23)NC(=O)[C@H](CO)NC(=O)CCNC1=O` [Compound 8, βAPYCVYK(lauroyl)βASWSC-NH2] (H-[βAla]PYCVYK(Lauroyl)[βAla]SWSC-NH2; disulfide 4-12), the IC50 on EphA4 Fc [1] came out at 390 ± 80 nM.
